molecular target: New Delhi metallo-β-lactamase 1 (NDM-1) (Acinetobacter baumannii, UniProt F8UNN7); assay: steady-state kinetics of hydrolysis; type: biochemical
Sequence (F8UNN7 1-270): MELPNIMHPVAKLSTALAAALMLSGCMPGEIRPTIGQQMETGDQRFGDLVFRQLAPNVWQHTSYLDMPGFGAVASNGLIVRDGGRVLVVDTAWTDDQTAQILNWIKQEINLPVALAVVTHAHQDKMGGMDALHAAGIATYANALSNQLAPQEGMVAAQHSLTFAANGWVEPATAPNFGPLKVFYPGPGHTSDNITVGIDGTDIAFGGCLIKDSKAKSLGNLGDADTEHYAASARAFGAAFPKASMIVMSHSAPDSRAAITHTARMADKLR

| SMILES | Km [µM] |
| --- | --- |
| CO[C@@]1(NC(=O)Cc2cccs2)C(=O)N2C(C(=O)O)=C(COC(N)=O)CS[C@@H]21 [cefoxitin] | > 60 |
| CC(C)(O/N=C(\C(=O)N[C@@H]1C(=O)N2C(C(=O)[O-])=C(C[n+]3ccccc3)CS[C@H]12)c1csc(N)n1)C(=O)O [ceftazidime] | > 60 |
| C[C@@H](O)[C@H]1C(=O)N2C(C(=O)O)=C(S[C@@H]3CN[C@H](C(=O)N(C)C)C3)[C@H](C)[C@H]12 [meropenem] | > 60 |

From PMC9078263 (RSC Advances, 2018)
